Source: patent publication US20100168041A1, “COMBINATION OF MONOSACCHARIDES AND DESQUAMATING AGENTS, AND USE THEREOF” (L'OREAL, priority 2008, published 2010)

Columns and labels:
type I procollagen = test: Synthesis of procollagen 1 in reconstructed skin (indirect immunofluorescence); type: cell-based, human; settings: for procollagen 1 synthesis: reconstructed skin
Method: Conventional detection via indirect immunofluorescence of type I procollagen in the dermis of the reconstructed skin was also performed on other series of frozen sections (anti-procoll 1 antibody (MAB 1912 Millipore)+FTIC-coupled conjugate (112-095-068 Jackson Immunoresearch)). In order to obtain bearings within the cutaneous architecture during the microscopic examination of the sections, the cell nuclei of the keratinocytes and fibroblasts are localized by staining them with propidium iodide, as described above. Three frozen sections are prepared at random on each reconstructed skin and on each section, and two microscopic fields (25× objective lens) are analysed by fluorescence microscopy and photographed. The levels of fluorescence proportional to the amount of type I procollagen are compared between the control skin and the skin treated with rhamnose.

[1] = test system: dermal fibroblasts of the reconstructed skin; test: Proliferation of fibroblasts in whole reconstructed skin (propidium iodide count); type: cell-based, human; settings: 5 mM, within 48 hours of treatment
Excerpt: Rhamnose was studied on a model of whole reconstructed skin in order to measure its anti-ageing efficacy on the dermal compartment.
Briefly, the model of reconstructed skin used is that described by Bell et al. (Bell E. et al., The reconstitution of living skin, J. Invest. Dermatol., 1983, July; 81): it includes a dermal equivalent on which is reconstructed a multistratified epidermis; the dermal equivalent is manufactured from acid-soluble collagen, culture medium containing serum and normal adult human fibroblasts. After 5 days of shrinkage, this equivalent is inoculated with keratinocytes and then cultured for 6 days in immersion and for 7 days in emersion in order to obtain a multistratified and differentiated epidermis having a horny layer.
The reconstructed skin is treated with 5 mM rhamnose for 2 days and 5 days in the culture medium; after the treatment, the reconstructed skins are included in Tissue Tek in order to produce frozen sections 7 μm thick with a cryostat. […] Three frozen sections are prepared at random on each reconstructed skin; on each section, two microscopic fields (25× objective lens) are analysed by fluorescence microscopy and photographed. The dermal fibroblasts are thus counted for each reconstructed skin on six images in total representing the six microscopic fields considered. […]

[2] = test system: keratinocytes (HaCat line); test: Proliferation of keratinocytes (Cyquant, Nile red, XTT markers); type: cell-based; settings: keratinocytes cultured in medium depleted in growth factors, vs untreated control
Method: The keratinocytes (HaCat line) are cultured under two conditions: whole defined culture medium (standard condition) and culture medium deficient in growth factors. This deficient medium gives rise to a controlled delay in cell proliferation. Under these conditions, it is then possible to measure the effects of compounds capable of compensating for the deficiency in growth factors of the culture medium and thus of relaunching the cell multiplication and/or of stimulating cell metabolism.
The keratinocyte proliferation is measured by means of three markers on the same cell population: the level of DNA, which is proportional to the number of cells (Cyquant probe), the level of constituent polar lipids of cell membranes (Nile red probe) and the mitochondrial respiration, which reflects the general cell metabolism (XTT probe).

C[C@H](O)[C@H](O)[C@@H](O)[C@@H](O)C=O [rhamnose, Rhamnose]
green fluorescence (proportional to amount of type I procollagen) vs control skin (type I procollagen; 1 mM for 120 hours): marked increase
synthesis of type I procollagen by the fibroblasts (type I procollagen; 1 mM for 120 hours): greatly stimulated
procollagen 1 synthesis (type I procollagen; 1 mM): stimulation of procollagen 1 synthesis
procollagen 1 synthesis (type I procollagen; 5 mM): stimulation of procollagen 1 synthesis
growth of the dermal fibroblasts [1]: induces stimulation of growth
keratinocyte proliferation [2]: activate keratinocyte proliferation
